These compounds were tested against T1, Glutaminase kidney isoform, mitochondrial (Homo sapiens, UniProt O94925) (assay: Enzymatic Activity Assay: The inhibition of purified recombinant human GAC by varying concentrations of inhibitors is assessed via a dual-coupled enzymatic assay. The glutamate produced by the glutaminase reaction is used by glutamate oxidase to produce α-ketoglutarate, ammonia, and hydrogen peroxide, with this hydrogen peroxide subsequently being used by horseradish peroxidase to produce resorufin in the presence of Amplex UltraRed. The assay buffer consisted of 50 mM Hepes (pH 7.4), 0.25 mM EDTA and 0.1 mM Triton X-100. GAC was incubated with potassium phosphate (10 minutes at room temperature) prior to incubation with inhibitor (10 minutes at room temperature). The final reaction conditions were as follows: 2 nM GAC, 50 mM potassium phosphate, 100 mU/mL glutamate oxidase (Sigma), 1 mM glutamine (Sigma), 100 mU/mL horseradish peroxidase (Sigma), 75 μM Amplex UltraRed (Life Technologies), and 1% (v/v) DMSO. The production of resorufin was monitored on a Perkin Elmer Envision plate reader (excitation 530 nm, emission 590 nm) either in a kinetics or endpoint mode (at 20 minutes). IC50 values were calculated using a four-parameter logistic curve fit.).
T1 sequence (O94925 whole entry): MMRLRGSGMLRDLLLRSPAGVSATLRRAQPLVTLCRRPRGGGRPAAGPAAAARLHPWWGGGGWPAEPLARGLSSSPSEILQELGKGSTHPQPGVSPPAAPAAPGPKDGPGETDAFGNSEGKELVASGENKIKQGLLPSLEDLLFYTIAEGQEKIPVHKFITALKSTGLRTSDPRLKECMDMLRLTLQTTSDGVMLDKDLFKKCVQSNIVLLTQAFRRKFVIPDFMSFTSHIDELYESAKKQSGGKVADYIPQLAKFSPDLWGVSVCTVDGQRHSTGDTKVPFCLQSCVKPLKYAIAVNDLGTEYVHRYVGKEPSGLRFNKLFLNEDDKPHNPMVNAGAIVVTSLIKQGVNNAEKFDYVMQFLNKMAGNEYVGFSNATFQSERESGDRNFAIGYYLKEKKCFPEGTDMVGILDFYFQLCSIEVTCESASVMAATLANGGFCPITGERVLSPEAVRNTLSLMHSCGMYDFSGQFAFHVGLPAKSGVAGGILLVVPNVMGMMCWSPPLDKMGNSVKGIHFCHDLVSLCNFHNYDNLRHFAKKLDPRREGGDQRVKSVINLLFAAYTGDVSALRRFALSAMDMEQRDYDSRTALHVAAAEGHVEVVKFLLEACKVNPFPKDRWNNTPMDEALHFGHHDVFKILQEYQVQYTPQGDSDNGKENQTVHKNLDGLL

Row | IC50 | Structure (SMILES)
1 | < 100 nM | O=C(NCc1cccc(OC(F)(F)F)c1)c1cn(CCCCn2cc(C(=O)NCc3ccc(C(F)(F)F)cn3)nn2)nn1
2 | < 100 nM | COc1cncc(CNC(=O)c2cn(CC(F)CCc3nnc(NC(=O)Cc4cccc(OC(F)(F)F)c4)s3)nn2)c1 (stereo not drawn)
3 | < 100 nM | O=C(NCc1cc(C2CC2)ccn1)c1cn(CCC(F)Cn2cc(C(=O)NCc3cccc(C4CC4)c3)nn2)nn1 (stereo not drawn)
